Literature values as cited in US9827281B2, “Medication dispensing system” (priority 2015, dated 2017).

Legend:
[1] = test system: prostate cell line, PC-3
[2] = biological target: T1, androgen receptor in the prostate gland (Homo sapiens, UniProt P10275)
T1 construct: host or cells: prostate gland
T1 sequence (P10275 1-920): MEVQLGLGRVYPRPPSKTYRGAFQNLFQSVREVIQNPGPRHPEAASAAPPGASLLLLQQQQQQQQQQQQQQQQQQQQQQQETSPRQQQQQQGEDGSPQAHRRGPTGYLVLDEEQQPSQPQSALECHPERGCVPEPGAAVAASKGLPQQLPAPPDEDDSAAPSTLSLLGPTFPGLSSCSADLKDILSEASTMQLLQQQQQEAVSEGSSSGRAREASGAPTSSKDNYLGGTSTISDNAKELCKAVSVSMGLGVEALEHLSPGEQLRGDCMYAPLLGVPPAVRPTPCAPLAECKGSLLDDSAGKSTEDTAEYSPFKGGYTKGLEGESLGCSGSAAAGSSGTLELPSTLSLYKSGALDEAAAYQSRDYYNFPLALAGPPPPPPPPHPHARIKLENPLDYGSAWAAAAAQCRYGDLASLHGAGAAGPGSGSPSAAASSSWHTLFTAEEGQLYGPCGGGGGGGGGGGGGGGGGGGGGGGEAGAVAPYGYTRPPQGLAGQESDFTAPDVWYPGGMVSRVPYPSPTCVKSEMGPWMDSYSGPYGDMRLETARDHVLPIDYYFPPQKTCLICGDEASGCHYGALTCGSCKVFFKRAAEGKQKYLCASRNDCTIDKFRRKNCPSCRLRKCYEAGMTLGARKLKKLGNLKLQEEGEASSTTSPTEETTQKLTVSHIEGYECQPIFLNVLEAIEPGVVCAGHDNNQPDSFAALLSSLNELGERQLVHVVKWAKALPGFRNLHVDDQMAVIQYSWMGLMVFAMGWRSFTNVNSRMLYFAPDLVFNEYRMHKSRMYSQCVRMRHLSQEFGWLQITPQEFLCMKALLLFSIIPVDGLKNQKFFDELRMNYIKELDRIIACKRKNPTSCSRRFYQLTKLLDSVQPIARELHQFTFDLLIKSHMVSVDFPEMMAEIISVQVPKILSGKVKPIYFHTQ

[3] = test system: nontumorigenic mammary cells
[4] = test system: estrogen receptor-positive and estrogen receptor-negative breast cancer cell lines; details: inducing apoptosis in a concentration-dependent manner
[5] = test system: cannabinoid receptors
[6] = biological target: CB1 receptor (Homo sapiens, UniProt P21554)
[7] = not given; remark: listed apart in the source

Chain of CB1 receptor (P21554 whole entry): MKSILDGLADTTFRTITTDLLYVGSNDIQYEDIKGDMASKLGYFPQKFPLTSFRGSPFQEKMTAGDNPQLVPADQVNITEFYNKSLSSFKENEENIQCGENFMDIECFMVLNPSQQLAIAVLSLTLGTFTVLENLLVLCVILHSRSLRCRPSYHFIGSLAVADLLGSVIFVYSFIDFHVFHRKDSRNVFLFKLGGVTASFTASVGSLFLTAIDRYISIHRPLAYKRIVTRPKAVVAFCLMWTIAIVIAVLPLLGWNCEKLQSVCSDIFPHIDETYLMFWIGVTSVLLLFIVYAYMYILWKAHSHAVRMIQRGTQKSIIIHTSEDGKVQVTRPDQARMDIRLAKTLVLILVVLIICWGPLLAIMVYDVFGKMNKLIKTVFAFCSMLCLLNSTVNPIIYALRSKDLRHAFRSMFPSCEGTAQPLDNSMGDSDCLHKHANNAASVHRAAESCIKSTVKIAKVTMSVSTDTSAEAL

## CCCCCc1cc(O)c2c(c1)OC(C)(C)[C@@H]1CCC(C)=C[C@@H]21 [THC, Tetrahydrocannabinol]
cold-pressor test after administration
  pain sensitivity: decreased pain sensitivity
cold-pressor test, dronabinol oral capsules 10 mg or 20 mg
  time after administration at which pain reduction effects were felt (average): 180 min
Compared with smoked marijuana
  duration of effects: lasted longer than smoked marijuana
[1]
  apoptosis: causes apoptosis
[2]
  specific binding of dihydroxytestosterone to the androgen receptor: inhibits specific binding

## C=C(C)[C@@H]1CCC(C)=C[C@H]1c1c(O)cc(CCCCC)cc1O [CBD, Cannabidiol]
[3]
  effect on nontumorigenic mammary cells: little effect
[4]
  survival of breast cancer cell lines: inhibited the survival
[5]
  affinity to cannabinoid receptors: low affinity

## CCCc1cc(O)c2c(c1)OC(C)(C)[C@@H]1CCC(C)=C[C@@H]21 [THCV, Tetrahydrocannabivarin]
[6]
  CB1 receptor mode of action: antagonist

## vitamin E
[7]; pre-menopausal women with a family history of breast cancer, highest quantity of vitamin E consumed
  reduction in breast cancer incidence: 43%
[7]; women without a family history of breast cancer
  risk reduction of breast cancer: 16%
